Data on eleven compounds can be found in paper PMC9589286, “Ruthenium polypyridine complexes with triphenylamine groups as antibacterial agents against Staphylococcus aureus with membrane-disruptive mechanism” (Frontiers in Chemistry, 2022).

≈ marks a conversion by molar mass, not a printed value.

One data set relates to Galleria mellonella. Description: Toxicity in insect model Galleria mellonella. Format: in vivo. To be noted: larvae, 120 h. As to the method:
Based on the excellent antibacterial effect of Ru-3 in vitro, its biosafety was further evaluated. Firstly, the hemolytic activity of ruthenium complexes on rabbit red blood cells was measured to study their toxicity. […] In view of its good compatibility with mammalian red blood cells, the toxicity of Ru-3 to eukaryotes was also studied. Herein, Ru-3 was tested with Gallery melonella larvae. […] When the concentration of Ru-3 was 64 mg kg^−1, the survival rate was still 75%.
FIGURE 15 Test results of Ru compounds toxicity (A) % hemolysis at 256 μg ml^−1 of Ru compounds. (B) Kaplan-Meier survival curves. […] The larvae were incubated at 37.5°C and live/dead scores were conducted at 120 h (C) H&E staining images of the infected tissues with different treatments.

Data set [1] relates to Staphylococcus aureus. Description: Drug resistance study, 20 generations at sub inhibitory concentration. Format: cell-based. To be noted: 20 passages at sublethal concentration. Here is the method: After Staphylococcus aureus was cultured for 5 h, the bacteria were diluted 1000 times with fresh TSB and the MIC of Ru-3 was measured. The bacterial solution grown at the sub inhibitory concentration of compound Ru-3 was inoculated into fresh TSB medium for 5 h, then the MIC was measured, and the above procedure was repeated for 20 generations. Ampicillin was used as the control.

The subject of data set [2] is Staphylococcus aureus. Description: Checkerboard assay with antibiotics. It is filed as cell-based. To be noted: for MIC of antibiotics: antibiotic alone, S. aureus; for FICI: combination of the antibiotic with Ru-3, S. aureus. Here is the method:
Firstly, the MIC of all selected antibiotics was determined by the above method. Staphylococcus aureus was cultured overnight and diluted 1000 times with fresh TSB. Then 200 μL the diluted bacterial suspension, 25 μL Ru-3 of gradient concentrations and 25 μL antibiotics of gradient concentrations were mixed in 96 well plates and further cultured at 37°C for 20 h. MIC values of single drug and the best combination effect (combination of MICA and MICB) were measured. Graphpad prism software was used to draw the checkerboard map and isoline map.

In data set [3] the test system is Staphylococcus aureus. Description: MIC by microdilution in TSB broth. Format: cell-based. To be noted: 20 h. As to the method: Antibacterial activity was evaluated by measuring MIC (minimum inhibitory concentration) and MBC (minimum bactericidal concentration) values. The MIC value was measured by the microdilution method using TSB broth with 96 well plates ([Carlsen et al., 1981]) and the MBC value was determined by LB plates. In brief, the overnight cultured bacteria were 1: 1000 diluted with fresh medium to get a bacterial suspension. After incubation at 37°C for 20 h, the growth of bacteria is monitored by observing the turbidity of the culture. The bacterial solution was diluted as above method and the complexes were incubated with bacterial solution for 2 h. Then 100 μL bacterial solution was taken for plate coating. The Staphylococcus aureus growth inhibition trend in the presence of complexes was obtained. The MBC values of complexes were determined by LB plates after culturing in the same method for 24 h. All experiments were controlled with sterile water and repeated in parallel at least three times.

Data set [4] deals with Staphylococcus aureus. Description: Nucleic acid leakage, 260 nm absorbing material. It is filed as cell-based. The conditions noted are these: 100 μg/ml, 2 h. Here is the method:
To verify the membrane damage, the loss of 260 nm absorbing material was carried out ([Yu et al., 2021]). Briefly, overnight cultured bacteria were diluted 1:1000 in fresh TSB and shaken at 37°C for about 5 h until the exponential stage was reached. The supernatant was removed by centrifugation, then the bacteria were resuspended to OD600 = 1 with PBS, which was further treated with Ru-3 or polymyxin B and centrifuged after 2 h to precipitate bacterial cells. Subsequently, the loss of 260 nm absorbing material, including the release of DNA and RNA in the filtrate, was measured at 260 nm.

The nature of data set [5]: Partition coefficient, shake flask 1-octanol/PBS. It is filed as physicochemical. Here is the method: The partition coefficients of all complexes were determined by standard shake flask method in 1-octanol and buffer liquid system ([Yang et al., 2021]). In brief, the octanol/water partition coefficient is obtained by the incubation of 2 ml of 25 μg ml^−1 ruthenium complex 1-octanol and 2 ml PBS samples. After shaking the solution for 6 h, the samples were stood for 2 h. The absorbance of octanol complex at 282 nm before and after oscillation was measured. The absorbance of 1-octanol before oscillation minus the absorbance of 1-octanol after oscillation is the absorbance of the complex in water. Each experiment was repeated three times. The partition coefficient is reported as the number of octanol divided by the number of water.

Another data set concerns rabbit red blood cells. Description: Hemolytic activity on rabbit red blood cells. It is filed as cell-based. The conditions noted are these: 37°C, 30 min. Here is the method: Obtain red blood cells from fresh sterile rabbit blood and rabbit blood was washed three times with PBS. Ru(II) complexes in 950 µL phosphoric acid buffer (PBS) of different concentrations and 50 μL red blood cells were added into a 1.5 ml sample tube, incubated at 37°C for 30 min. The negative control was red blood cell suspension containing only PBS, and the positive control was PBS containing 0.1% (V/V) Triton X-100. After incubating the mixture was centrifugated (2000 rpm for 2 min) and the supernatant (200 μL) was transfered to another 96 well plate. Finally, the hemolysis rate was calculated by measuring the absorbance at 540 nm.

For `CC1(C)S[C@@H]2[C@H](NC(=O)[C@H](N)c3ccccc3)C(=O)N2[C@H]1C(=O)O` [Ampicillin, reference compound], in the data set on Galleria mellonella, the Kaplan-Meier survival curve result is recorded as “coincides with control’s curve”. The “increase of MIC value after 20 generations” value in the data set with Staphylococcus aureus [1] was “more than 1024 times”. Further, in the data set on Staphylococcus aureus [2], the MIC of antibiotics is 0.39 µg/mL and the FICI was found to be 0.38.

As for `O=C(N[C@H](CO)[C@H](O)c1ccc([N+](=O)[O-])cc1)C(Cl)Cl` [Chloramphenicol], in the data set with Staphylococcus aureus [2], the MIC of antibiotics was found to be 6.25 µg/mL and the FICI is listed as 0.50.

For the compound `CNC(C)C1CCC(N)C(OC2C(N)CC(N)C(OC3OCC(C)(O)C(NC)C3O)C2O)O1` (centres unmarked) [Gentamicin], in the data set on Staphylococcus aureus [2], the MIC of antibiotics turned out to be 6.25 µg/mL and the FICI amounted to 0.38.

With `NC[C@H]1O[C@H](O[C@H]2[C@H](O)[C@@H](O[C@H]3O[C@H](CO)[C@@H](O)[C@H](N)[C@H]3O)[C@H](N)C[C@@H]2N)[C@H](O)[C@@H](O)[C@@H]1O` [Kanamycin], in the data set with Staphylococcus aureus [2], the MIC of antibiotics came to 50.00 µg/mL and the FICI was 0.38.

As for `Cc1ccc(N(c2ccc(C)cc2)c2ccc(-c3nc4c5cccnc5c5ncccc5c4[nH]3)cc2)cc1` [PMA], the MIC with Staphylococcus aureus [3] (S. aureus, 37°C) is >256 µg/mL.

As to `O.O.O.[Cl][Ru]([Cl])[Cl]` [RuCl3∙3H2O], in the data set with Staphylococcus aureus [3] (S. aureus, 37°C), the minimum inhibitory concentration (MIC) is >256 µg/mL.

In the case of `CN(C)[C@@H]1C(O)=C(C(N)=O)C(=O)[C@@]2(O)C(O)=C3C(=O)c4c(O)cccc4[C@@](C)(O)[C@H]3C[C@@H]12` [Tetracycline], in the data set with Staphylococcus aureus [2], the MIC of antibiotics is 0.39 µg/mL and the FICI is recorded as 0.50.

Consider `CN[C@H](CC(C)C)C(=O)N[C@H]1C(=O)N[C@@H](CC(N)=O)C(=O)N[C@H]2C(=O)N[C@H]3C(=O)N[C@H](C(=O)N[C@H](C(=O)O)c4cc(O)cc(O)c4-c4cc3ccc4O)[C@H](O)c3ccc(c(Cl)c3)Oc3cc2cc(c3O[C@@H]2O[C@H](CO)[C@@H](O)[C@H](O)[C@H]2O[C@H]2C[C@](C)(N)[C@H](O)[C@H](C)O2)Oc2ccc(cc2Cl)[C@H]1O` [Vancomycin], for which, in the data set on Staphylococcus aureus [2], the MIC of antibiotics turned out to be 2 µg/mL and the FICI was found to be 1.00. This compound also yielded an MIC in the data set with Staphylococcus aureus [3] (Staphylococcus aureus) of 2 µg/mL (≈ 1.38 µM).

Consider Polymyxin B [reference compound], for which the “Δ% Nucleic acid leakage” value in the data set on Staphylococcus aureus [4] amounted to 23%.

Consider [Ru(bpy)2PMA] (PF6)2 [Ru-2], for which, in data set [5], the LgP is 0.97 and the logD o/w result is reported as “ca. 0.9681”. In addition, the “% Hemolysis at 256 μg/ml” value in the data set on rabbit red blood cells is 16%. The compound further showed a minimum inhibitory concentration (MIC) against Staphylococcus aureus [3] (S. aureus, 37°C) of 8 µg/mL.

[Ru(dmob)2PMA] (PF6)2 [Ru-1]: in data set [5], the LgP was 1.14 and the logD o/w result is recorded as “ca. 1.1445”. In addition, the “% Hemolysis at 256 μg/ml” value in the data set on rabbit red blood cells stood at 8%. Besides, the MIC with Staphylococcus aureus [3] (S. aureus, 37°C) was found to be 16 µg/mL.
